# In patent EP3724209B1, “ELASTOMERIC PEPTIDE” (Politecnico di Milano, priority 2017, dated 2019):
# Where a SMILES comes first, the peptide text is derived from it. Where no end group is shown, it is not given here. [ ]: non-standard residue; d: D form. Tyr(3,5-Br2) = N[C@@H](Cc1cc(Br)c(O)c(Br)c1)C(=O)O
# What was measured:
# [1] = test system: Pseudokirchneriella sub capitata
# Procedure: An ecotoxicity test on Pseudokirchneriella sub capitata was performed to evaluate I% (inhibition percentage effect) and IC50 (concentration which determines the 50% inhibition of growth on the population) of the halogenated peptide SDS-Y(3,5 Br)-GAP.
# The halogenated peptide SDS-Y(3,5 Br)-GAP was dissolved in water at 100 mg/l and tested at the following concentrations: 50 mg/l, 25 mg/l, 12.5 mg/l and 6.25 mg/l. Each sample was tested in triplicate.
# After 72 hours of incubation with the sample or controls, a spectrophotometric test was performed at 670nm as a measure of cell density.
# solubility test = assay type: physicochemical; details: for aspect of solution after cooling: 100 mM solution; for aspect of solution after heating: 100 mM solutions (5 mg in 50 µl); for solubility: buffers at pH 3, 7, and 12 (10 mM) and pure water
# Procedure: The isoelectric point (calculated on http://web.expasy.org/compute-pi/) of SDSYGAP (SEQ ID no. 6), comparative, and an oligopeptide according to the present invention, i.e., SDS-Y(3,5 Br)-GAP is 3.8. Three buffers at pH 3, 7, and 12 (10 mM concentration) and pure water were used as solvent for the two oligopeptides.
# [2] = test system: HeLa (Human cervical cancer cells); test: CellTiter-Glo Luminescent Cell Viability Assay; assay type: cell-based; details: 24 hours incubation
# Procedure: HeLa (Human cervical cancer cells) were grown in DMEM supplemented with 1 mM sodium pyruvate, 10 mM HEPES buffer, 100 U/mL penicillin, 0.1 mg/mL streptomycin, 2 mM glutamine and 10% FBS (hereafter referred to as complete medium), at 37°C in a 5% CO2 humidified atmosphere. Cells were splitted the day before seeding and used within eight passages. The cells were seeded at a density of 7000 cell/cm^2. For evaluating cell viability, the day after the seeding the cell medium was replaced with medium containing the wild type or the halogenated oligopeptides and cells were incubated for 24 hours.
# [3] = Dynamic Light Scattering aging study (autocorrelation lag time); assay type: physicochemical; details: 10 mM in water
# Procedure: Dynamic Light Scattering measurements were performed on an ALV/CGS-3 Platform-based Goniometer System equipped with an ALV-7004 correlator and an ALV/CGS-3 goniometer. The signal was detected by an ALV-Static and Dynamic Enhancer detection unit. The light source was the second harmonic of a diode-pumped Coherent Innova Nd:YAG laser (λ = 532 nm), linearly polarized in the vertical direction. Measurements were performed at 25°C. Approximately 1 ml of sample solution was transferred into the cylindrical Hellma scattering cell.
# The dynamic information on structures present in the peptide solutions were derived from the normalized autocorrelation function g2 (q, τ) of the scattered intensity, which is measured according to g2 (q, τ) = (〈I(q, t)I(q,t+τ)〉)/((〈I(q, t)〉)^2) [formula] where q is the scattering vector, τ is the relaxation time and I is the scattered intensity. Higher relaxation times correspond to larger self-assembled structures. […] Results are reported in Figure 7, as graphs showing the autocorrelation functions of wild type (panel A) or halogenated (panel B) oligopeptide 10 mM in water at 90°C. The autocorrelation functions at 90°C show increasing Lag Time, i.e., increasing dimensions of the self-assembled structures, over time. Table 1 summarizes and compares the results, showing that halogenated oligopeptide form bigger structures compared to the wild type one. This is a further indication that bromine atoms play a role in the aggregation behavior of the peptide sequence. The same aging study was performed in buffer at pH 7, with similar results (data not shown).
Lag time ([3]; aging time t=0),Lag time ([3]; aging time t=1 week),Lag time ([3]; aging time t=24 h),Lag time ([3]; aging time t=48 h),Compound,ecotoxicity [1],IC50 (concentration which determines the 50% inhibition of growth on the population) ([1]; 72 hours of incubation),aspect of solution after cooling (solubility test),aspect of solution after heating (solubility test),solubility (solubility test),cell viability [2]
,,,,"C[C@H](NC(=O)CNC(=O)[C@H](Cc1cc(Br)c(O)c(Br)c1)NC(=O)[C@H](CO)NC(=O)[C@H](CC(=O)O)NC(=O)[C@@H](N)CO)C(=O)N1CCC[C@H]1C(=O)O [SDS-Y(3,5 Br)-GAP] (H-SDS[Tyr(3,5-Br2)]GAP-OH)",not ecotoxic,54 µg/mL,milky,completely clear,good solubility properties in all the tested conditions,not toxic even at high concentrations
1.512 ms,3.826 ms,2.859 ms,1.919 ms,SDSYGAP [SDSYGAP],,,still clear,completely clear,good solubility properties in all the tested conditions,not toxic even at high concentrations
